Test results reported in patent US20220257764A1, “USE OF DIKETONE COMPOUND IN PHOTODYNAMIC THERAPY OR DIAGNOSIS” (BEIJING WHOLESOMETECH CO., LTD., priority 2019, published 2022).

Assays:
[1] = Blood routine and blood biochemical indicators of tumor-bearing mice after 2 weeks of treatment; assay type: in vivo, BALB/C mice; design: Mean corpuscular hemoglobin (MCH) / Mean corpuscular volume (MCV) / Red blood cell volume distribution width (RDW) / Hematocrit (HCT) / Hemoglobin (HGB): unit not given here; conditions: for Hematocrit (HCT) / Hemoglobin (HGB) / Mean corpuscular hemoglobin (MCH) / Mean corpuscular hemoglobin concentration (MCHC) / Mean corpuscular volume (MCV) / Mean platelet volume (MPV) / Platelet count (PLT) / Platelet distribution width (PDW) / Plateletocrit (PCT) / Red blood cell volume distribution width (RDW) / Red blood count (RBC) / White blood cell count (WBC): after 2 weeks
Experimental: 1. Photodynamic therapy experiments on tumors were carried out by using BJMU-204 as a photosensitizer and BALB/C mice as experimental animals.
Modeling mode: BALB/C mice were divided into 5 groups in total, 11-12 mice in each group. 4T1 cells (breast cancer cells in mice) were resuscitated and subcultured to a better cell state for tumorigenesis inoculation. BALB/C mice were locally depilated and disinfected, and tumor cells were injected into the mouse mammary fat pad in situ. Tumors were formed within 7 to 10 days.
Administration time: drug intervention was given to mice after tumor formation, and photodynamic therapy was given by intratumoral injection every other day under the irradiation of laser with a wavelength of 450 nm to 480 nm at a light intensity of 200 mW/cm^2.
Administration mode: as shown in the table below, the photosensitizer was dissolved in physiological saline and injected in mice in groups 1-3 intratumorally, and the groups receiving photodynamic therapy were irradiated with light immediately after the injection.
2. Mice in each experimental group were subjected to blood collection for serum separation and necropsy, and tumors were taken out and measured to obtain their wet weights; tumor tissues were fixed, pathological examinations were performed, and H. E. staining was used to observe the changes of tumors of the mice under an optical microscope; blood routine indicators (including white blood cell count (WBC), red blood cell count (RBC), lymphocyte count (LY), platelet count (PLT) and many other blood routine indicators) and blood biochemical indicators (including routine blood biochemical indicators) were tested and analyzed in the Laboratory of Peking University Third Hospital.

[2] = Phototoxicity to healthy mice (body weight, blood routine, blood biochemistry); assay type: in vivo, BALB/C mice
Experimental: BALB/C mice were divided into 2 groups in total, 9 mice in each group. The mice were fed adaptively for 2 days. Mice in a control group were fed normally, and mice in an experimental group were given photodynamic therapy by subcutaneous injection every other day under the irradiation of laser with a wavelength of 450 nm to 480 nm at a light intensity of 200 mW/cm^2.
Administration mode: as shown in the table below, the photosensitizer was dissolved in physiological saline and subcutaneously injected in mice in the experimental group, and the group receiving photodynamic therapy was irradiated with light immediately after the injection.
2. The mice in the experimental group and the control group were weighed every other day. At the end of the experiment, the mice were subjected to blood collection for serum separation and necropsy, and blood routine indicators (including WBC, RBC, LY, PLT and many other blood routine indicators) and blood biochemical indicators (including routine blood biochemical indicators) were tested and analyzed in the Laboratory of Peking University Third Hospital.

[3] = system: human cervical cancer Hela cells; assay: MTT cytotoxicity, Experimental Example 5; assay type: cell-based
Experimental: (§1) (1) Logarithmic phase cells were collected, the concentration of a cell suspension was adjusted, the cell suspension was added to a cell culture plate in a dose of 100 μL per well, and the cells were then added to a cell culture plate so that the density of the cells to be tested was adjusted to 1000-10000 wells (edge wells were filled with sterile PBS). […] Generally, the drug in 5 to 7 gradients was added in a dose of 100 μL per well, and 3 to 5 wells were set for each concentration of a drug. […] Cells in the experimental photosensitizer-light irradiation group were incubated for 15 min and then irradiated with light. […] After light irradiation, the cells were washed with PBS. […] After light irradiation, the cells were washed with PBS. […] If the drug could react with the MTT, centrifuging was carried out first, and then the culture solution was discarded and the cells were carefully washed twice or three times with PBS, and then the culture solution containing MTT was added. (6) The culture was terminated and the culture solution in the wells was carefully removed. (7) Dimethyl sulfoxide was added in a dose of 150 μL per well, and the plate was then shaken on a shaker at a low speed for 10 min to fully dissolve crystals. The absorbance at OD 490 nm of each well was measured with enzyme-linked immunoassay. […]

[4] = system: human immortalized keratinocyte (Hacat cells); assay: MTT cytotoxicity to normal cells, Experimental Example 5; assay type: cell-based
Experimental: as §1

[5] = Control group-1: intratumoral injection 3%, no light
[6] = High-concentration (3%) intratumoral injection + light 10 min
[7] = Low-concentration (0.5%) intratumoral injection + light 10 min
[8] = 3% subcutaneous injection + light 10 min, after 2 weeks

For `CC(=O)C(C)=O` [BJMU-204], the “Hematocrit (HCT)” value [1, 5] was 28.8 ± 5.76, the “Hemoglobin (HGB)” value [1, 5] was 117 ± 26.64 and the “Mean corpuscular hemoglobin (MCH)” value [1, 5] was 18.43 ± 0.67. For the same compound, the “Mean corpuscular hemoglobin concentration (MCHC)” value [1, 5] was 404.5 ± 26.01, the “Mean corpuscular volume (MCV)” value [1, 5] was 45.65 ± 1.35 and the “Mean platelet volume (MPV)” value [1, 5] was 6.1 ± 0. For the same compound, the “Platelet count (PLT)” value [1, 5] was 312 ± 125.04, the “Platelet distribution width (PDW)” value [1, 5] was 16.2 ± 0 and the “Plateletocrit (PCT)” value [1, 5] was 0.24 ± 0. The “Red blood cell volume distribution width (RDW)” value [1, 5] was 14.18 ± 0.75, the “Red blood count (RBC)” value [1, 5] was 6.33 ± 1.36 and the “White blood cell count (WBC)” value [1, 5] was 352.8 ± 45.95. The “Hematocrit (HCT)” value [1, 6] was 32.4 ± 12.48, the “Hemoglobin (HGB)” value [1, 6] was 123 ± 40.8 and the “Mean corpuscular hemoglobin (MCH)” value [1, 6] was 18.43 ± 1.93. The “Mean corpuscular hemoglobin concentration (MCHC)” value [1, 6] was 387.5 ± 40.38, the “Mean corpuscular volume (MCV)” value [1, 6] was 47.5 ± 1.95 and the “Mean platelet volume (MPV)” value [1, 6] was 6.63 ± 0.76. The “Platelet count (PLT)” value [1, 6] was 267 ± 167.28, the “Platelet distribution width (PDW)” value [1, 6] was 15.13 ± 0.76 and the “Plateletocrit (PCT)” value [1, 6] was 0.24 ± 0.12. For the same compound, the “Red blood cell volume distribution width (RDW)” value [1, 6] was 14.58 ± 0.84, the “Red blood count (RBC)” value [1, 6] was 6.81 ± 2.51 and the “White blood cell count (WBC)” value [1, 6] was 136.8 ± 31.45. For the same compound, the “Hematocrit (HCT)” value [1, 7] was 32.64 ± 12.12, the “Hemoglobin (HGB)” value [1, 7] was 141.6 ± 42.72 and the “Mean corpuscular hemoglobin (MCH)” value [1, 7] was 20.1 ± 1.84. For the same compound, the “Mean corpuscular hemoglobin concentration (MCHC)” value [1, 7] was 447 ± 48.54, the “Mean corpuscular volume (MCV)” value [1, 7] was 45.04 ± 1.21 and the “Mean platelet volume (MPV)” value [1, 7] was 6.23 ± 0.61. The “Platelet count (PLT)” value [1, 7] was 494.4 ± 387.6, the “Platelet distribution width (PDW)” value [1, 7] was 13.37 ± 1.47 and the “Plateletocrit (PCT)” value [1, 7] was 0.48 ± 0.24. For the same compound, the “Red blood cell volume distribution width (RDW)” value [1, 7] was 13.78 ± 0.59, the “Red blood count (RBC)” value [1, 7] was 7.22 ± 2.62 and the “White blood cell count (WBC)” value [1, 7] was 193.5 ± 70. For the same compound, the “number of platelets and white blood cells in the blood” value ([1]; treated groups vs control groups (p<0.001), after 2 weeks of treatment) was “decreases”, the “liver, kidney and blood toxicity” value ([1]; tumor-bearing mice, continuous treatment for 14 days at high or low concentration therapeutic doses) was “will not cause liver, kidney and blood toxicity” and the “body weight, experimental group vs control group” value ([2]; 3% subcutaneous + light, 14 days after treatment) was “no significant difference”. For the same compound, the “Hematocrit (HCT)” value [2, 8] was 45.22 ± 2.83, the “Hemoglobin (HGB)” value [2, 8] was 160.22 ± 12.07 and the “Mean corpuscular hemoglobin (MCH)” value [2, 8] was 16.18 ± 0.34. The “Mean corpuscular hemoglobin concentration (MCHC)” value [2, 8] was 354.11 ± 8.19, the “Mean corpuscular volume (MCV)” value [2, 8] was 45.71 ± 0.6 and the “Mean platelet volume (MPV)” value [2, 8] was 6.23 ± 0.37. The “Platelet count (PLT)” value [2, 8] was 290 ± 50.23, the “Platelet distribution width (PDW)” value [2, 8] was 14.84 ± 0.6 and the “Plateletocrit (PCT)” value [2, 8] was 0.17 ± 0.03. The “Red blood cell volume distribution width (RDW)” value [2, 8] was 12.67 ± 0.54, the “Red blood count (RBC)” value [2, 8] was 9.9 ± 0.72 and the “White blood cell count (WBC)” value [2, 8] was 6.56 ± 0.54. For the same compound, the “liver, kidney and blood toxicity” value ([2]; continuous treatment for 14 days at high concentration therapeutic doses) was “will not cause liver, kidney and blood toxicity”, the “cytotoxicity to Hela cells” value ([3]; given in the dark) was “relatively low cytotoxicity” and the “cytotoxicity to Hela cells” value ([3]; given under blue light, 450-480 nm, 110 mW/cm^2, 900 s) was “relatively high cytotoxicity”. For the same compound, the “cytotoxicity to Hacat cells” value [4] was “relatively low cytotoxicity”.
